Results: ChEMBL document CHEMBL6120994, “Unravelling the potential of natural chelating agents in the control of Staphylococcus aureus and Pseudomonas aeruginosa biofilms” (Eur J Med Chem, 2025)
In brackets after ≈: the same amount, converted by molar mass.

Key:
[1] = Metal chelating activity assessed as compound-Fe(III) complex formation by measuring RhB degradation in MgO2/Fe(III) system measured within 30 mins by UV-Visible spectrophotometry
Pseudomonas aeruginosa [2] = test: Antibacterial activity against Pseudomonas aeruginosa ATCC 10145 assessed as inhibition of bacterial growth incubated for 24 hrs by broth microdilution method; type: functional
Staphylococcus aureus [3] = test: Bactericidal activity against Staphylococcus aureus CECT 976 assessed as bacterial killing incubated in MHB for 24 hrs and measured following culturing on agar plate for 24 hrs; type: functional; details: time 48 hrs
Pseudomonas aeruginosa [4] = test: Bactericidal activity against Pseudomonas aeruginosa ATCC 10145 assessed as bacterial killing incubated in MHB for 24 hrs and measured following culturing on agar plate for 24 hrs; type: functional; details: time 48 hrs
Staphylococcus aureus [5] = test: Antibacterial activity against Staphylococcus aureus CECT 976 assessed as inhibition of bacterial growth incubated for 24 hrs by broth microdilution method; type: functional

SMILES	Activity [1] [%]	MIC (Pseudomonas aeruginosa [2]) [µg/mL]	MBC (Staphylococcus aureus [3]) [µg/mL]	MBC (Pseudomonas aeruginosa [4]) [µg/mL]	MIC (Staphylococcus aureus [5]) [µg/mL]
O=C(O)CN(CCN(CC(=O)O)CC(=O)O)CC(=O)O	25.8	–	–	–	–
O=C(O)[C@@H](O)[C@H](O)C(=O)O	98.5	–	–	–	–
O=C(O)c1cn(C2CC2)c2cc(N3CCNCC3)c(F)cc2c1=O [CIPROFLOXACIN]	–	32 (≈ 96.6 µM)	8 (≈ 24.1 µM)	32 (≈ 96.6 µM)	–
O=C(O)C(=O)O	48.9	–	–	–	–
O=C(O)CC(O)(CC(=O)O)C(=O)O	42.3	–	–	–	–
NC[C@H]1O[C@H](O[C@H]2[C@H](O)[C@@H](O[C@H]3O[C@H](CO)[C@@H](O)[C@H](N)[C@H]3O)[C@H](N)C[C@@H]2N)[C@H](N)C[C@@H]1O [TOBRAMYCIN]	–	8 (≈ 17.1 µM)	4 (≈ 8.56 µM)	16 (≈ 34.2 µM)	4 (≈ 8.56 µM)
